According to the kinase profiling compilation of Christmann-Franck et al. (2016):
Values belong to the molecule of their own block, whether it stands above or below them.

Assays:
Assay in all cases: radiometric filter-binding kinase assay, Kinase HotSpot
Details in all cases: compound 0.5 µM; ATP 10 µM
CDK1 CCNB1 (human) = CDK1 CCNB1 (human) (UniProt P06493+P14635)
CDK4 CCND1 (human) = CDK4 CCND1 (human) (UniProt P24385+P11802)
CDK6 CCND1 (human) = CDK6 CCND1 (human) (UniProt Q00534+P24385)
MAP3K7 TAB1 (human) = MAP3K7 TAB1 (human) (UniProt O43318+Q15750)
DYRK1B (human) = DYRK1B (human) (UniProt Q9Y463)
CDK9 CCNT1 (human) = CDK9 CCNT1 (human) (UniProt P50750+O60563)
STK33 (human) = STK33 (human) (UniProt Q9BYT3)
CDK3 CCNE1 (human) = CDK3 CCNE1 (human) (UniProt Q00526+P24864)
CDK6 CCND3 (human) = CDK6 CCND3 (human) (UniProt P30281+Q00534)
CDK1 CCNA2 (human) = CDK1 CCNA2 (human) (UniProt P06493+P20248)
CDK5 CDK5R1 p35 (human) = CDK5 CDK5R1 p35 (human) (UniProt Q00535+Q15078)
CDK2 CCNA2 (human) = CDK2 CCNA2 (human) (UniProt P24941+P20248)
PRKCH (human) = PRKCH (human) (UniProt P24723)
CDK5 CDK5R1 p25 (human) = CDK5 CDK5R1 p25 (human) (UniProt Q00535+Q15078)
CDK4 CCND3 (human) = CDK4 CCND3 (human) (UniProt P30281+P11802)
CDK2 CCNE1 (human) = CDK2 CCNE1 (human) (UniProt P24941+P24864)
CDK9 CCNK (human) = CDK9 CCNK (human) (UniProt O75909+P50750)
CDK7 CCNH MNAT1 (human) = CDK7 CCNH MNAT1 (human) (UniProt P50613+P51948+P51946)
LTK (human) = LTK (human) (UniProt P29376)
[1] = tested on: SGK1 (human), O00141 [S422D]
Sequence of SGK1 (human), O00141 [S422D] (O00141 whole entry S422D, looked up): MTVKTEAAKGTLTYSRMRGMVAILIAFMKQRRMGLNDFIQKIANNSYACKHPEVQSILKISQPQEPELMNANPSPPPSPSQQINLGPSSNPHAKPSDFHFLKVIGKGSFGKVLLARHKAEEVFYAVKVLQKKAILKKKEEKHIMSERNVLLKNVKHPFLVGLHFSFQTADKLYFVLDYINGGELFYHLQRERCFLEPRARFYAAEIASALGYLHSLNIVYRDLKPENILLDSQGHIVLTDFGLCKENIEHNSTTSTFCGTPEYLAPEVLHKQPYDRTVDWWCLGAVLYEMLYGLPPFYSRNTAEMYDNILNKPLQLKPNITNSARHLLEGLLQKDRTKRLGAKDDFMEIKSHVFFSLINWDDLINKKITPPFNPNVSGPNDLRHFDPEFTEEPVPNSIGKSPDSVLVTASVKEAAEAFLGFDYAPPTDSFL

Sequence of CDK1 CCNB1 (human) (P06493 whole entry, looked up): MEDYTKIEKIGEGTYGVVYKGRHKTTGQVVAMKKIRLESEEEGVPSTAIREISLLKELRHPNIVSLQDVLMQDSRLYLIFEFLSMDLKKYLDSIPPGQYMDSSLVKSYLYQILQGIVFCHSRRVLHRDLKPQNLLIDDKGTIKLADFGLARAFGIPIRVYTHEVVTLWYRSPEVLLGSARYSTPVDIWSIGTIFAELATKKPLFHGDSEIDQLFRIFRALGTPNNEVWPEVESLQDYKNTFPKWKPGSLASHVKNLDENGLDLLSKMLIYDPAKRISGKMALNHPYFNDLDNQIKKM
Sequence of CDK1 CCNB1 (human) (P14635 whole entry, looked up): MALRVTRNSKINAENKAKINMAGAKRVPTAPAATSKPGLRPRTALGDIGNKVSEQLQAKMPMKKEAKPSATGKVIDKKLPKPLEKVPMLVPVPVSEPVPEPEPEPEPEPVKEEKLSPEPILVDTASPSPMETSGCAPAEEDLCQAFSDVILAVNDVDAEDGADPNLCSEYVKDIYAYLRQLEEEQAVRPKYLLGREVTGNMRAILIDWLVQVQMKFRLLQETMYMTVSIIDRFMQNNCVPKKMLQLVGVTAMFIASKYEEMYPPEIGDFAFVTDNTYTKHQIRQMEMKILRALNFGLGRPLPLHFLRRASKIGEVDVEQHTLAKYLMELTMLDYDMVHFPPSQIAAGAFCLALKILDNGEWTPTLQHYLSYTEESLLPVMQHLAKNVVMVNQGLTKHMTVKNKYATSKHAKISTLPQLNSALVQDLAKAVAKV
Sequence of CDK1 CCNA2 (human) (P06493 whole entry, looked up): as the sequence (P06493 whole entry, looked up) above
Sequence of CDK1 CCNA2 (human) (P20248 whole entry, looked up): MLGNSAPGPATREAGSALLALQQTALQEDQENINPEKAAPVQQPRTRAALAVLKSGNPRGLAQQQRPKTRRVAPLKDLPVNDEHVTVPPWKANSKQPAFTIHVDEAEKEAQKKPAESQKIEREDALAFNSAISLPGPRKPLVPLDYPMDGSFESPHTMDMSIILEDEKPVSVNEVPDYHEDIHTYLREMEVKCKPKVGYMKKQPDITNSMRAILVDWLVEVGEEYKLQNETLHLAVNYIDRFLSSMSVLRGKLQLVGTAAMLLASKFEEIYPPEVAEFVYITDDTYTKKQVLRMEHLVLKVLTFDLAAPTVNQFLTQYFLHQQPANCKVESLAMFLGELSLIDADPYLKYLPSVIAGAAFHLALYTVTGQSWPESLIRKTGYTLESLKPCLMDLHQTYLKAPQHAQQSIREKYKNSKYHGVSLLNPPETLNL
Sequence of PRKCH (human) (P24723 whole entry, looked up): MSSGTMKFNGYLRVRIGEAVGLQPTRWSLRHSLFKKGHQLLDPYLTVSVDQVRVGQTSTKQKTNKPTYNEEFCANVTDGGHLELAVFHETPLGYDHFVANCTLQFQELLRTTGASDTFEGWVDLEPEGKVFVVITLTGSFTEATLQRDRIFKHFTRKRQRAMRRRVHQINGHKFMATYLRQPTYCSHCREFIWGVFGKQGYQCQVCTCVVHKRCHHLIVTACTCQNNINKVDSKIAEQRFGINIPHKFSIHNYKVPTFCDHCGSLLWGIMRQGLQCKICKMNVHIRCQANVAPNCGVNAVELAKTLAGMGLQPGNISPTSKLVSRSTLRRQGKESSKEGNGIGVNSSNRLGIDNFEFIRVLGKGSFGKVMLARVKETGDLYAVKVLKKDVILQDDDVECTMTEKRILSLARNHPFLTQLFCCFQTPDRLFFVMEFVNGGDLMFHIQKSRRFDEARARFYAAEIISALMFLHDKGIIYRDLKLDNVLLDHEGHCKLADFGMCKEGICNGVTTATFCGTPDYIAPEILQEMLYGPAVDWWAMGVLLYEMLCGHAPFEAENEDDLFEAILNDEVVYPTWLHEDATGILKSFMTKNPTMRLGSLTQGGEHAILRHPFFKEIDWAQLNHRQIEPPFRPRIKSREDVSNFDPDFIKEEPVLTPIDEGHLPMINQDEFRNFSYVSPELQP
Sequence of DYRK1B (human) (Q9Y463 whole entry, looked up): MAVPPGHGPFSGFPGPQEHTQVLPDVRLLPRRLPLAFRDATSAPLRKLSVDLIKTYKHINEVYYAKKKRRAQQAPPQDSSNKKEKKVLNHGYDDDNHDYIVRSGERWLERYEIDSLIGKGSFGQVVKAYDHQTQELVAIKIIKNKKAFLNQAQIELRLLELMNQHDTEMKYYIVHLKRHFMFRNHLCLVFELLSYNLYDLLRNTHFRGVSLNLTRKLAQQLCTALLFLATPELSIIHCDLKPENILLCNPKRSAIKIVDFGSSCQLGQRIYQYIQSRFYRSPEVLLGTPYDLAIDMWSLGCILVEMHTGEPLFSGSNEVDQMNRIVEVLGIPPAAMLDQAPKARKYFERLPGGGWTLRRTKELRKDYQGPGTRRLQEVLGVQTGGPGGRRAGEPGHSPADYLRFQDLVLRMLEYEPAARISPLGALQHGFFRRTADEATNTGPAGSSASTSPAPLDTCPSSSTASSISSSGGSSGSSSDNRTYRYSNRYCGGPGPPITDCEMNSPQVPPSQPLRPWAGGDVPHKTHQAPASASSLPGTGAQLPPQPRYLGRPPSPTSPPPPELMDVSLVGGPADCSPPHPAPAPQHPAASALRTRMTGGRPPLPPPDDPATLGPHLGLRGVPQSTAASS
Sequence of CDK2 CCNE1 (human) (P24864 whole entry, looked up, other chains not shown): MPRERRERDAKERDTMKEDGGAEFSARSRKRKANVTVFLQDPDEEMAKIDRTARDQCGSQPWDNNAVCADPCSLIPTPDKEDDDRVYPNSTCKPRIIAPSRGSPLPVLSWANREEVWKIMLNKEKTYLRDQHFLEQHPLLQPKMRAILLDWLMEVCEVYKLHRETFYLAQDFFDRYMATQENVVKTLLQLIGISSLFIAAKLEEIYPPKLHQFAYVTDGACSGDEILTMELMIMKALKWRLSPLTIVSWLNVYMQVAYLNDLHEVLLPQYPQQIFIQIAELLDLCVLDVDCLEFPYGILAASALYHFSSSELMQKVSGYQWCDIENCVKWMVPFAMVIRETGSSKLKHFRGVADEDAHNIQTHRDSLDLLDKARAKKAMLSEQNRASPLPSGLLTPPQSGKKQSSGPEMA
Sequence of CDK3 CCNE1 (human) (P24864 whole entry, looked up): as the sequence (P24864 whole entry, looked up, other chains not shown) above
Sequence of CDK3 CCNE1 (human) (Q00526 whole entry, looked up): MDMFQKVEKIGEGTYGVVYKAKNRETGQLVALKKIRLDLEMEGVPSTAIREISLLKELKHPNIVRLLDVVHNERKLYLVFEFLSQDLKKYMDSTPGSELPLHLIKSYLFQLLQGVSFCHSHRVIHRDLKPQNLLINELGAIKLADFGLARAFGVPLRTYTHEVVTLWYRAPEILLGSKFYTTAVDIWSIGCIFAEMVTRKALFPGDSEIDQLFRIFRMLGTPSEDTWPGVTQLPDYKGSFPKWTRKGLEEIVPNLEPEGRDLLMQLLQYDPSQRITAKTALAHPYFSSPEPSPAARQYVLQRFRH
Sequence of CDK2 CCNA2 (human) (P20248 whole entry, looked up, other chains not shown): as the sequence (P20248 whole entry, looked up) above
Sequence of CDK5 CDK5R1 p25 (human) (Q00535 whole entry, looked up): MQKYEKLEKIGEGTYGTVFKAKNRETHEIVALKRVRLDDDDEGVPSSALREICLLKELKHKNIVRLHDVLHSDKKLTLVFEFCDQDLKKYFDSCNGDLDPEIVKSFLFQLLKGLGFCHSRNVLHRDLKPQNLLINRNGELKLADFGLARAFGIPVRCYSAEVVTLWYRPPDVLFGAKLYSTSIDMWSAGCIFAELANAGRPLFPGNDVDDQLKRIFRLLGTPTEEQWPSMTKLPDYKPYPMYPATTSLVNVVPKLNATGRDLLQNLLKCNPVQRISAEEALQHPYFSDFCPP
Sequence of CDK5 CDK5R1 p25 (human) (Q15078 whole entry, looked up): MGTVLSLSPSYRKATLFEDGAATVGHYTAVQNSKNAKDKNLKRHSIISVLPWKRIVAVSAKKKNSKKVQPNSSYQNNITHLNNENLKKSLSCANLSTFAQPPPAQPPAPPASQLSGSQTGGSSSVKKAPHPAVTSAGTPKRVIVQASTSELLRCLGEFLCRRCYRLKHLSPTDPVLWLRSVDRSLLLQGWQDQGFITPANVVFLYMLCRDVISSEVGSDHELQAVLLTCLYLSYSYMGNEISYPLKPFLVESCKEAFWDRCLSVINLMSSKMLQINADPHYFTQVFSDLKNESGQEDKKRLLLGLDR

SMILES: CC(C)(C)n1nc(Cc2cccc3ccccc23)c2c(N)ncnc21
residual activity (CDK1 CCNB1 (human)): 107%
residual activity (CDK4 CCND1 (human)): 96.7%
residual activity (CDK6 CCND1 (human)): 98.6%
residual activity (MAP3K7 TAB1 (human)): 99%
residual activity (DYRK1B (human)): 98.6%
residual activity (CDK9 CCNT1 (human)): 102%
residual activity (STK33 (human)): 99.7%
residual activity (CDK3 CCNE1 (human)): 87.8%
residual activity (CDK6 CCND3 (human)): 97.3%
residual activity (CDK1 CCNA2 (human)): 94.8%
residual activity (CDK5 CDK5R1 p35 (human)): 95.6%
residual activity (CDK2 CCNA2 (human)): 99.4%
residual activity (PRKCH (human)): 92.1%
residual activity (CDK5 CDK5R1 p25 (human)): 109%
residual activity (CDK4 CCND3 (human)): 95.8%
residual activity (CDK2 CCNE1 (human)): 89.6%
residual activity (CDK9 CCNK (human)): 81.4%
residual activity (CDK7 CCNH MNAT1 (human)): 100%
residual activity (LTK (human)): 98.2%

SMILES: Oc1ccc(Nc2nc(-c3ccc(Cl)cc3)cs2)cc1
residual activity [1]: 106%

SMILES: CN(C)C[C@H]1CCn2c(c(C3=C(c4cn(C)c5ccccc45)C(=O)NC3=O)c3ccccc32)C1
residual activity [1]: 72.9%

SMILES: CCCC(=O)Oc1ccc2[nH]c(C(=O)c3cc4ccccc4[nH]3)cc2c1
residual activity [1]: 97%

SMILES: Cc1cncc2cccc(S(=O)(=O)N3CCCN(C(=O)CN)C[C@H]3C)c12
residual activity [1]: 103%

SMILES: O=C(NC(NC(=S)Nc1ccc(F)c([N+](=O)[O-])c1)C(Cl)(Cl)Cl)C(c1ccccc1)c1ccccc1 (stereo not given)
residual activity [1]: 93.1%

SMILES: CC[n+]1c(/C=C/N(C)c2ccccc2)n(-c2ccccc2)c2ccc(-c3nc4ccccc4s3)cc21
residual activity [1]: 97.2%

SMILES: COc1ccc(COc2ccc(Cc3cnc(N)nc3N)cc2OC)cc1
residual activity [1]: 97.9%

Other lines, results leading:

residual activity [1]: 99.9%
SMILES: Nc1n[nH]c2nnc(-c3c(-c4ccccc4)nn4ccccc34)cc12

residual activity [1]: 101%
SMILES: CC(C)N(CCC(=O)c1ccc2ccccc2c1)Cc1ccccc1

residual activity [1]: 115%
SMILES: Cn1cnc2cc3c(Nc4cccc(Br)c4)ncnc3cc21

residual activity [1]: 116%
SMILES: O=C1Nc2ccccc2/C1=C\c1c(Cl)[nH]c2ccccc12

residual activity [1]: 102%
SMILES: N#C/C(=C(/N)Sc1ccc(N)cc1)c1ccccc1C(F)(F)F

residual activity [1]: 103%
SMILES: Cc1[nH]c(/C=C2\C(=O)Nc3ccc(S(=O)(=O)N(C)c4cccc(Cl)c4)cc32)c(C)c1C(=O)N1CCN(C)CC1

residual activity [1]: 93%
SMILES: Nc1nc(Nc2ccc(S(N)(=O)=O)cc2)nn1C(=O)c1c(F)cccc1F

residual activity [1]: 91.5%
SMILES: Nc1ncnc2[nH]nc(Nc3ccc(F)cc3)c12

residual activity [1]: 93.1%
SMILES: CN(C)c1ccc(/C=C2\C(=O)Nc3ccccc32)cc1
